Laboratory results taken from patent US20260022095A1, “COMPOUNDS USEFUL FOR THE PREPARATION OF VARIOUS AGROCHEMICALS AND MARKERS THEREOF” (ADAMA AGAN LTD., priority 2021, published 2026).

Assay: Sunlight exposure of buffered aqueous Tetflupyrolimet solutions, Storage Marker formation by HPLC-MS
Type: physicochemical
Settings: natural sunlight approximately 2 months; for concentration of the Storage Marker as compared to the solution buffered at pH=7: quartz tube
Procedure: Three lots of about 50 mg of Tetflupyrolimet were each suspended in about 2 ml of a 2% solution of acetonitrile in water, and sonicated for about 20 minutes.
Into each, about 0.1 ml of a different buffer was added, pH=4, pH=7 and pH=10 respectively.
The three solutions were each filtered and introduced to quartz tubes and exposed to natural sunlight for approximately 2 months.
• Column: Agilent Zorbax Eclipse XDB C18, 150×4.6 mm ID, 5.0 μm • Injection volume: 5 μL • Oven temperature: 40° C. • Detector: UV, □=230, 250, 280 nm • Solvent delivery system conditions at flow rate of 1.0 ml/min: […]

CN1C[C@H](c2cccc(C(F)(F)F)c2)[C@@H](C(=O)Nc2ccccc2F)C1=O [Tetflupyrolimet, (3S,4S)—N-(2-fluorophenyl)-1-methyl-2-oxo-4-(3-(trifluoromethyl)phenyl) pyrrolidine-3-carboxamide]
formation of Storage Marker (HPLC-MS) (2% acetonitrile in water, buffered at pH=4, pH=7 and pH=10, quartz tubes): formation of Storage Marker in each solution
concentration of the Storage Marker as compared to the solution buffered at pH=7 (solution buffered at pH 4): approximately an order of magnitude higher concentration of the Storage Marker
concentration of the Storage Marker as compared to the solution buffered at pH=7 (solution buffered at pH 10): approximately an order of magnitude higher concentration of the Storage Marker
